test system: G. duodenalis BRIS/91/HEPU/1279; assay: Primary Giardia screen at 10 µM (live-cell imaging, automated counting); type: cell-based, Giardia duodenalis; settings: 24 h
How it was run: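 Percent growth versus 0.2% DMSO vehicle, background-corrected with media-only wells, is reported at 24 and 48 h from automated live-cell counts. Testing used 10 μM final in a 3% O2 atmosphere, with plate quality checked by Z' factor.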

Row | Structure (SMILES) | Average % Inhibition 24h
1 | O=[N+]([O-])c1ccccc1Sc1nnnn1C1CCOCC1 [SN00782002] | 6.2%

same assay, conditions: 24 h, first singlicate assay

Row | Structure (SMILES) | % Inhibition n=1 24h
2 | O=[N+]([O-])c1ccccc1Sc1nnnn1C1CCOCC1 [SN00782002] | 12.3%

same assay, conditions: 24 h, re-assessment

Row | Structure (SMILES) | % Inhibition n=2 24h
3 | O=[N+]([O-])c1ccccc1Sc1nnnn1C1CCOCC1 [SN00782002] | 0.0%

same assay, conditions: 48 h

Row | Structure (SMILES) | Average % Inhibition 48h
4 | O=[N+]([O-])c1ccccc1Sc1nnnn1C1CCOCC1 [SN00782002] | 8.6%

same assay, conditions: 48 h, first singlicate assay

Row | Structure (SMILES) | % Inhibition n=1 48h
5 | CN1CCN(CC2CCN(c3ccc([N+](=O)[O-])cc3Cl)CC2)CC1 [SN00781176] | 33.0%
6 | N/C(=N/OCc1ncc(-c2cccs2)o1)c1ccc(Oc2ccc(F)cc2)nc1 [SN00781212] | 41.6%
7 | O=C(Cc1csc(N2CCCNC2=O)n1)Nc1ccccc1OC(F)F [SN00781228] | 8.7%
8 | COCCOCC(C)NC(=O)Cc1csc(N2CCCNC2=O)n1 (stereo not shown) [SN00781237] | 11.2%
9 | Nc1cc(C2CCNCC2)[nH]n1 [SN00781241] | 7.2%
10 | C1CNCC2CCCN2C1 (stereo not shown) [SN00781270] | 3.1%
11 | Cc1ccccc1-c1noc(Cn2c(-c3ccccn3)noc2=O)n1 [SN00781291] | 0.0%
12 | CCCc1noc(Cn2c(-c3ccc(OC)c(OC)c3)noc2=O)n1 [SN00781301] | 0.0%
13 | O=C(NCC1CN2CCCC2CO1)c1ccccc1-n1cnnn1 (stereo not shown) [SN00781319] | 0.0%
14 | Cc1ccc([N+](=O)[O-])cc1NC(=O)N1CCC(n2cncn2)CC1 [SN00781334] | 0.0%
15 | O=C(Cn1c(-c2ccccn2)noc1=O)N1CCc2sccc2C1 [SN00781376] | 0.0%
16 | O=C(Cn1c(-c2ccccn2)noc1=O)C12CC3CC(CC(C3)C1)C2 [SN00781381] | 21.7%
17 | O=C(Cn1c(-c2cccnc2)noc1=O)NCC1CCCO1 (stereo not shown) [SN00781423] | 0.0%
18 | CCn1c(Cn2c(-c3cccnc3)noc2=O)nc2c(F)cccc21 [SN00781429] | 0.0%
19 | O=C(Cn1c(-c2ncccn2)noc1=O)N1CCCCC1 [SN00781438] | 1.7%
20 | Cn1ncc2c1CCCC2NC(=O)N1CCCCC(N2CCCC2)C1 (stereo not shown) [SN00781466] | 13.9%
21 | Cc1csc(C2CCN(C(=O)c3ccccc3[N+](=O)[O-])CC2)n1 [SN00781474] | 8.2%
22 | CCc1csc(C2CCCN(C(=O)c3ccc4c(c3)OCO4)C2)n1 (stereo not shown) [SN00781524] | 0.0%
23 | Cc1csc(C2CCCCN2)n1 (stereo not shown) [SN00781548] | 6.1%
24 | COCCN1CCN(c2nc(-c3ccncc3)nc3c2CCC3)CC1 [SN00781610] | 15.0%
25 | COc1ccc(-n2ccn3c(CCC(=O)Nc4cc(C)cc(C)c4)nnc3c2=O)cc1 [SN00781639] | 16.2%
26 | COCC(=O)Nc1ccc(NC(=O)c2cc3nc(C)ccc3o2)cc1 [SN00781689] | 14.1%
27 | CN(C)C(=O)Cc1nc(CN2CCc3c(ncn3C)C2)cs1 [SN00781984] | 0.0%
28 | Cn1cnc2c1CCN(Cc1csc(-c3ccco3)n1)C2 [SN00781992] | 24.5%
29 | O=[N+]([O-])c1ccccc1Sc1nnnn1C1CCOCC1 [SN00782002] | 15.2%
30 | NCC1CN(C2CC2)CCO1 (stereo not shown) [SN00782004] | 23.7%

Row | Structure (SMILES) | % Inhibition n=1 48h
31 | CCOc1cc(F)ccc1NC(=O)N1CCCC(N2CCCC2=O)C1 (stereo not shown) [SN00782090] | 7.0%
32 | Cc1ncc(C(=O)NC2C3CCCOC3C2(C)C)s1 (stereo not shown) [SN00782098] | 9.0%
33 | CC1(C)C(NC(=O)Nc2ccc([N+](=O)[O-])cc2)C2CCCOC21 (stereo not shown) [SN00782105] | 16.3%
34 | Cc1cc(C)n(Cc2ccc(C(=O)N3CCN(Cc4n[nH]c(C)n4)CC3)cc2)n1 [SN00782137] | 1.5%
35 | COc1ccc(C(NC(=O)CN2CCN(Cc3n[nH]c(C)n3)CC2)C(C)C)cc1 (stereo not shown) [SN00782152] | 0.6%
36 | CCn1cc(C2OCCC2CNC/C=C/c2ccccc2OC)cn1 (stereo not shown) [SN00782244] | 28.6%
37 | CC(C)(C)OC(=O)N1CCN(S(=O)(=O)C2CN(C(=O)C3(CN)CCC3)C2)CC1 [SN00782268] | 1.1%
38 | O=C(CCc1cnn(-c2ccccc2)c1)Nc1cc(C2CCOCC2)[nH]n1 [SN00782289] | 8.0%
39 | Cc1cccc(-c2noc(Cn3cccn3)n2)c1 [SN00782358] | 0.0%
40 | COc1ccc(CNC(=O)N2CCN(C)CC2c2ccccc2)cn1 (stereo not shown) [SN00782363] | 0.0%
41 | CCCCn1nnnc1CN1CCCC1Cn1cncn1 (stereo not shown) [SN00782373] | 0.0%
42 | CCn1cc(CN2CCCN(C(=O)C(C)n3cncn3)CC2)cn1 (stereo not shown) [SN00782395] | 0.0%
43 | CCc1nnsc1C(=O)N1CCCN(Cc2ccccc2F)CC1 [SN00782451] | 0.0%
44 | CCc1nnsc1C(=O)N1CCCN(Cc2cnn(CC)c2)CC1 [SN00782455] | 0.0%
45 | Cc1cc(C(=O)N2CCCN(Cc3cnn(C)c3)CC2)on1 [SN00782463] | 0.0%
46 | Cn1ncc2c(N3CCCN(C4CC4)CC3)ncnc21 [SN00782468] | 9.8%
47 | CCN1CCCN(c2ncnc3c2c(Br)nn3C)CC1 [SN00782469] | 4.4%
48 | Cc1ccccc1OCC(=O)N1CCN(Cc2nnc3n2CCCCC3)CC1 [SN00782472] | 0.5%
49 | OC(CN1CCCN(C2CC2)CC1)c1ccccc1C(F)(F)F (stereo not shown) [SN00782563] | 5.9%
50 | COCCS(=O)(=O)N1CCCC1Cn1ccnc1 (stereo not shown) [SN00782604] | 0.0%
51 | Cc1cc(C2CCCN(C(=O)CCc3cnn(C)c3)C2)n[nH]1 (stereo not shown) [SN00782611] | 7.8%
52 | Cc1nsc(N2CCCN(C(=O)NCc3ccccc3C)CC2)n1 [SN00782653] | 0.0%
53 | CCc1nnc2n1CCN(Cc1csc(-c3ccsc3)n1)C2 [SN00782656] | 24.2%
54 | CCCCS(=O)(=O)N1CCC2(CC1)CC2c1nc(-c2cccc(Cl)c2)no1 (stereo not shown) [SN00782685] | 0.0%
55 | CCC(OC1CCCC1)C(=O)N1CCN(c2nccn2C)CC1 (stereo not shown) [SN00782691] | 0.0%
56 | COc1cccc(C2(C)NC(=O)N(Cc3csc(-c4ccccc4)n3)C2=O)c1 (stereo not shown) [SN00782700] | 0.0%

Row | Structure (SMILES) | % Inhibition n=1 48h
57 | O=C1CC(C(=O)N2CCCCC2Cn2cccn2)CN1C1CCCC1 (stereo not shown) [SN00782719] | 0.0%
58 | Cc1ccccc1C1CCN(C(=O)C2CCCC2)C1 (stereo not shown) [SN00782733] | 7.3%
59 | Cc1cnn(CC(C)NCc2nc(-c3ccccn3)no2)c1 (stereo not shown) [SN00782812] | 19.9%
60 | COCCN1CCCN(C(=O)C2CCCN(S(C)(=O)=O)C2)CC1 (stereo not shown) [SN00782901] | 15.1%
61 | COc1ccc(CCC(=O)N2CCCN(C(=O)c3cc(-c4cccc(Cl)c4)on3)CC2)cc1 [SN00782943] | 0.0%
62 | CC1(C(=O)N2CCCC(CN3CCOCC3)C2)CC1(Cl)Cl (stereo not shown) [SN00782980] | 14.3%
63 | CC(C)(C)NC(=O)CCN1CCc2[nH]nc(C(F)(F)F)c2C1 [SN00783032] | 9.6%
64 | C=C(C)CN1Cc2ccccc2CC1c1nnc(CC)o1 (stereo not shown) [SN00783147] | 0.0%
65 | Cc1nnc(C2Cc3ccccc3CN2CCOc2ccc(F)cc2)o1 (stereo not shown) [SN00783149] | 0.0%
66 | CN1CCN(CC2CCN(C(=O)Cc3cccc4ccccc34)CC2)CC1 [SN00783181] | 17.7%
67 | CCC(C)(NCc1ncc(-c2cccs2)o1)c1nccs1 (stereo not shown) [SN00783193] | 26.6%
68 | Cc1nn(C)c(C)c1CC(C)NC(=O)NCC1CN2CCCC2CO1 (stereo not shown) [SN00783221] | 15.6%
69 | O=C(Cc1ccc2c(c1)CCC2)N1CCC(n2cncn2)CC1 [SN00783222] | 6.3%
70 | O=C(Nc1cccc(C(=O)N2CCC(N3CCCC3)C2)c1)c1ccco1 (stereo not shown) [SN00783226] | 0.0%
71 | CC(=O)NCc1ccc(C(=O)N2CCCCC(N3CCCC3)C2)cc1 (stereo not shown) [SN00783239] | 4.5%
72 | COCCN1C(=O)CCC(C(=O)O)C1c1cnn(-c2ccccc2)c1 (stereo not shown) [SN00783261] | 0.0%
73 | CC(c1nnc(-c2cccs2)o1)N1CCc2cncnc2C1 (stereo not shown) [SN00783267] | 12.9%
74 | CCc1ncc2c(n1)CN(Cc1nc(-c3ccco3)oc1C)CC2 [SN00783272] | 0.0%
75 | Cc1ncccc1CNCC1CN(C2CC2)CCO1 (stereo not shown) [SN00783283] | 14.5%
76 | CS(=O)(=O)c1nccn1Cc1ccccn1 [SN00783289] | 1.6%
77 | Cc1sc(=O)n(CCC(=O)N2CCC(C)CC2c2ccco2)c1C (stereo not shown) [SN00783298] | 0.0%
78 | CC(=O)C1=C(C)NC(=O)NC1c1ccc(Cl)cc1 (stereo not shown) [SN00783317] | 2.8%
79 | NC(=O)c1nn2c(C(F)(F)F)cc(-c3ccccc3)nc2c1Br [SN00783344] | 38.7%
80 | CN(C)c1nc(N(C)C)nc(N2CC(=O)N(c3ccc(Cl)c(Cl)c3)C2=N)n1 [SN00783378] | 16.0%
81 | Cc1cc(C(F)(F)F)nn1CC(=O)Nc1cc(Oc2cccnc2)cc([N+](=O)[O-])c1 [SN00783379] | 22.1%

same assay, conditions: 48 h, re-assessment

Row | Structure (SMILES) | % Inhibition n=2 48h
82 | O=[N+]([O-])c1ccccc1Sc1nnnn1C1CCOCC1 [SN00782002] | 2.0%

Source: paper PMC9775191, “A Subset Screen of the Compounds Australia Scaffold Library Identifies 7-Acylaminodibenzoxazepinones as Potent and Selective Hits for Anti-Giardia Drug Discovery” (Biomedicines, 2022)
